Experimental data published in US20120107323A1, “KINASE PROTEIN BINDING INHIBITORS” (University of Florida, priority 2009, published 2012).

Assays:
[1] = test system: BxPC3 pancreatic cancer cells; experiment: Cell viability (MTT), BxPC3; type: cell-based; conditions: Homo sapiens, BXPC-3; BxPC3, 72 hours; read-out: IC50 of INT2-31, cell viability
Description: (§1) Cell viability (MTT) and CFSE Proliferation assay: Cells were plated in 96-well plates and let adhere overnight. After cell treatment, cell viability was measured by 3-(4,5-dimethylthiazol-2-yl)-2,5-diphenyl tetrazolium bromide (MTT) assay (CellTiter 96® Aqueous, Promega, Madison, Wis.).
(§2) Cell viability and detachment assays: After cells were treated with siRNA transfection, cell viability was measured by 3-(4,5-dimethylthiazol2-yl)-2,5-diphenyl tetrazolium bromide (MTT) assay (CellTiter 96® AQueous, Promega, Madison, Wis.). Briefly, 20 μl of the tetrazolium compound was added to each well. The cells were then incubated at 37° C. for 1 h. The plate was read at 490 nm with a plate reader to determine the viability. In detachment assays, detached and attached cells were harvested separately and counted in a hemocytometer. The percentage of detachment was calculated by dividing the number of detached cells by the total number of cells. Apoptosis assays: After treatment, attached and detached cells were collected, counted and prepared for terminal uridine deoxynucleotidyl transferase (TUNEL) assay by utilizing an APO-BRDU kit (BD Pharmingen, San Diego, Calif.) according to the manufacturer's instructions. Stained cells were analyzed with a fluorescence-activated cell sorting-Calibur flow cytometer (BD Biosciences). […] Apoptotic cells were also analyzed by Hoechst staining. […]

FAK and IGF-1R = target: T1, FAK and IGF-1R (Homo sapiens, UniProt Q05397); experiment: Coimmunoprecipitation of FAK and IGF-1R in C8161 melanoma cells; type: cell-based; conditions: average IC50, C8161 cells, immunoprecipitation with antibody against FAK; read-out: IC50, disruption of FAK/IGF-1R binding
T1 construct: endogenous in cells; host or cells: C8161 (A2) and A375 (A3) melanoma cells
T1 sequence (Q05397 2-1052 limits assumed): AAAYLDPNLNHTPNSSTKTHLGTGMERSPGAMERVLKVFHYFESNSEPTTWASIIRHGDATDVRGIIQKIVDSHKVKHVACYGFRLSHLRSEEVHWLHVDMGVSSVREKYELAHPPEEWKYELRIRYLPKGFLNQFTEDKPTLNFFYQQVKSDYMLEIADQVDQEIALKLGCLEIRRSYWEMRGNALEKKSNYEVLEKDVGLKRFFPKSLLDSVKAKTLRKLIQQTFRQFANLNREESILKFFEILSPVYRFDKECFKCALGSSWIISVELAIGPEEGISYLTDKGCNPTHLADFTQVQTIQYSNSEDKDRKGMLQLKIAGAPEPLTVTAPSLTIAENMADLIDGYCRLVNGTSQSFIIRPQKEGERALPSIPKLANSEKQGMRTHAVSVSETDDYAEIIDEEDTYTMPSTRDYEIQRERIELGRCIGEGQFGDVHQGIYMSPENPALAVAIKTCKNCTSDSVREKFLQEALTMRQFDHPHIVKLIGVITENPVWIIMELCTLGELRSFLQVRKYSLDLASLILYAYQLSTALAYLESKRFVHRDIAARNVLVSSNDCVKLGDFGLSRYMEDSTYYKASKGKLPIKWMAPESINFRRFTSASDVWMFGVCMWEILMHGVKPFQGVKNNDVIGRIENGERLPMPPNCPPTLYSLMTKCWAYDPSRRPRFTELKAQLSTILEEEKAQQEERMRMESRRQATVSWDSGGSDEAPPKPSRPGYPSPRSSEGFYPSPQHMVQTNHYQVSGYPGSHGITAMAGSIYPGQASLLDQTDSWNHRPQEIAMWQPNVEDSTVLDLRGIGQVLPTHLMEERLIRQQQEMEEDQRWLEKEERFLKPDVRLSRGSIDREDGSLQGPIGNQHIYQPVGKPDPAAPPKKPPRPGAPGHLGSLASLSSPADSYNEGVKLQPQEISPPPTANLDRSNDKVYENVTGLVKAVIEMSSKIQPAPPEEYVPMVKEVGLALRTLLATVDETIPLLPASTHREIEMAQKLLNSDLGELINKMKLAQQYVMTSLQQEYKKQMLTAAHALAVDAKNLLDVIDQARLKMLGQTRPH
Excerpt: Computational Docking The crystal structures of the N-terminal domain of FAK (PDB code 2AL6) (22) and the kinase domain of IGF-1R(PDB 1P40A) (23) were utilized for in silico molecular modeling of their interaction as previously described. The three-dimensional coordinates of compound NSC344553 (INT2-31), obtained from the database of the National Cancer Institute, Developmental Therapeutics Program (NCI/DTP), were docked onto the predicted interface of the amino-terminus of FAK (amino acids 127-243) with the intracytoplasmic portion of IGF-1R (21). […] 100 orientations were created for NSC344553 in the target site and were scored using the computer program grid-based scoring function. […] The intermolecular energies for all configurations of NSC 344553 in binding to FAK-NT2 were calculated as the sum of electrostatic and van der Waals energies. These energy terms were evaluated as correlation functions, which were computed efficiently with Fast Fourier Transforms. […] Bound proteins were boiled in 6× Laemmli buffer and analyzed by SDS-PAGE and Western blotting. […] The intensity of the bands in the western blots was measured with scion image analysis software program. […]

MCF7 breast cancer cells = experiment: Cell viability (MTT), MCF7; type: cell-based; conditions: Homo sapiens; MCF7, 72 hours; read-out: IC50 of INT2-31, cell viability
Description: as §1, §2

A375 melanoma cells = experiment: Cell viability (MTT), A375; type: cell-based, human
Description: as §1
Cell viability and detachment assays: After cells were treated with siRNA transfection, cell viability was measured by 3-(4,5-dimethylthiazol2-yl)-2,5-diphenyl tetrazolium bromide (MTT) assay (CellTiter 96® AQueous, Promega, Madison, Wis.). Briefly, 20 μl of the tetrazolium compound was added to each well. The cells were then incubated at 37° C. for 1 h. The plate was read at 490 nm with a plate reader to determine the viability. In detachment assays, detached and attached cells were harvested separately and counted in a hemocytometer. The percentage of detachment was calculated by dividing the number of detached cells by the total number of cells. Apoptosis assays: After treatment, attached and detached cells were collected, counted and prepared for terminal uridine deoxynucleotidyl transferase (TUNEL) assay by utilizing an APO-BRDU kit (BD Pharmingen, San Diego, Calif.) according to the manufacturer's instructions. Stained cells were analyzed with a fluorescence-activated cell sorting-Calibur flow cytometer (BD Biosciences). Calculation of the percentage of apoptotic cells in the sample was completed with CellQuest software (BD Biosciences). Apoptotic cells were also analyzed by Hoechst staining. Hoechst 33342 ([…]) was added to the fixed cells and the specimens were mounted on glass coverslips. The slides were viewed under the Zeiss microscope for apoptotic nuclei. The percent of apoptotic cells was calculated as the ratio of apoptotic cells to total number of cells.
In addition, the effect of INT2-31 on cell viability of esophageal, pancreatic and breast cancer cell lines was analyzed and the IC50 value for each cell line was determined, as shown in Table 1. […] Similar to melanoma results, INT2-31 inhibits viability more in cancer cells compared to normal cells. […]

CSc1ncnc2c1ccn2C1O[C@H](COP(=O)(O)O)[C@@H](O)[C@H]1O (stereo partly drawn) [INT2-31, 4-(Methylthio)-7-(5-O-phosphono-D-ribofuranosyl)-{7H-Pyrrolo[2,3-d]pyrimidine}]
IC50 [1]: 45.6 µM
IC50 (FAK and IGF-1R): 2.72 µM
IC50 (MCF7 breast cancer cells): 0.03 µM
cell viability (in words) (A375 melanoma cells; A375, MTT): inhibited cell viability in a dose-dependent manner
IC50 (A375 melanoma cells; Homo sapiens, A-375, A375, 72 hours, read-out: IC50 of INT2-31, cell viability): 2.7 µM
